The values below come from patent US12441709B2, “Therapeutic compounds” (INDIVIOR UK LIMITED, priority 2016, dated 2025).

In one assay the target is T1, human Orexin 1 receptor (Homo sapiens, UniProt O43613).
T1 construct: expressed in transfected cells
T1 sequence (O43613 1-425): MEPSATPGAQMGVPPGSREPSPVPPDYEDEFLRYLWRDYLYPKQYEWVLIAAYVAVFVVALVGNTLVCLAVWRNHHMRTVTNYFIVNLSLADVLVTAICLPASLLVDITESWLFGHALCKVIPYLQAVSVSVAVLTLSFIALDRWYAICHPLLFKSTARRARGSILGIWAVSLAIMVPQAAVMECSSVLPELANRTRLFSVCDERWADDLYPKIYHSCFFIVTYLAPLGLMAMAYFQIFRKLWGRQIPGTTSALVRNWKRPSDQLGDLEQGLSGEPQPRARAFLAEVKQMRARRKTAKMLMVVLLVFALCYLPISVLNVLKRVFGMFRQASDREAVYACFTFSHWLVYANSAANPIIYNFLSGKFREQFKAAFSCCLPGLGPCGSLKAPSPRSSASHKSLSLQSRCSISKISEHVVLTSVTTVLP
Kind of assay: Kinetics of competitive binding (Motulsky and Mahan analysis), Orexin 1 receptor. As to conditions: for Ki: read-out: pKi (M&M) (converted). The method, then:
(§1) Kinetics of Competitive Binding (Motulski and Mahan's Analysis):
(§2) Motulsky and Mahan characterisation of the Examples was performed as described by Faedo et al., European Journal of Pharmacology 692(2012), p. 1-9 with the following modifications:
(§3) The association binding experiment was initiated by addition of membranes expressing the human Orexin 1 receptor at different times to the incubation buffer containing 1 nM of [^3H] SB674042. Non-specific binding was determined in the presence of 10 μM of SB674042. The association of the radioligand to the orexin receptor was performed as described for the kinetics experiment in the presence of the competing test compounds. The competing test compounds were assayed at three concentrations corresponding to 3, 10 and 30 fold of the determined Ki. For kinetic binding studies of the human Orexin 2 receptor, the method described for the Orexin 1 receptor was used with modifications that membranes expressing the human Orexin 2 receptor were incubated in buffer containing 1 nM of [3H] EMPA and non-specific binding was determined in the presence of 10 μM ACT-078573.

Another assay has as its target T2, human Orexin 2 receptor (Homo sapiens, UniProt O43614).
T2 construct: expressed in transfected cells
T2 sequence (O43614 1-444): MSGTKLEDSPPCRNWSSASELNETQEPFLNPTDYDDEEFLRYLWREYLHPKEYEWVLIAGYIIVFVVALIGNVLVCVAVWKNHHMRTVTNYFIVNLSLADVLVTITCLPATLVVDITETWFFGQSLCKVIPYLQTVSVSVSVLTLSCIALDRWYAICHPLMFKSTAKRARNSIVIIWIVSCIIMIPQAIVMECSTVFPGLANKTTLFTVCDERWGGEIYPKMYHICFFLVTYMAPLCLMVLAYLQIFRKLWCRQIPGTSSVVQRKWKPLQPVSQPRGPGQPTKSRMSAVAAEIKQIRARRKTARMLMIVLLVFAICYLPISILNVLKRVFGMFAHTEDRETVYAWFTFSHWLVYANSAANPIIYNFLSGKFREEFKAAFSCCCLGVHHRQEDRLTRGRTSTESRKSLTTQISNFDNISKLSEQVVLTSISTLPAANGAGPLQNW
Kind of assay: Kinetics of competitive binding (Motulsky and Mahan analysis), Orexin 2 receptor. As to conditions: mean of 3 studies (n=3); for Ki: 1 nM [3H] EMPA, read-out: pKi (M&M) (converted). The procedure:
as §1, §2, §3
The results for the Orexin-2 Receptor studies are the mean of the results from 3 studies (n=3) for both Example compounds.

Setting [1] is: further test results (Example 1 n = 3, Example 2 n = 1).
The mark [2] stands for this setting: mean of all results (Example 1 n = 5, Example 2 n = 3).
Setting [3] is: mean of initial results (n = 2).

Where two headings read alike, the source gives them in different places.

What is called koff is a measure of how fast the partners let go of each other. One may read the kon as the rate constant with which the complex forms. Read a low kon as slow association. With `Cc1ccc(-n2nccn2)c(C(=O)N(C)[C@@H](C)CNc2ncc(C(F)(F)F)cn2)n1` [Example 2, N,6-dimethyl-3-(2H-1,2,3-triazol-2-yl)-N-[(2S)-1-{[5-(trifluoromethyl)pyrimidin-2-yl]amino}propan-2-yl]pyridine-2-carboxamide], on human Orexin 1 receptor (setting [1]), the dissociation half-life amounted to 1 h, the koff was 0.000183 s⁻¹, the kon was 78000 M⁻¹ s⁻¹ and the tR stood at 87 min. Moreover, the Ki on human Orexin 1 receptor (setting [1]) was 2.51 nM. Besides, at human Orexin 1 receptor (setting [2]), the dissociation half-life was 1.08 h, the koff was 0.000183 s⁻¹, the kon was 76200 M⁻¹ s⁻¹ and the tR worked out at 93 min. At human Orexin 1 receptor (setting [2]), the Ki was 2.51 nM. At human Orexin 1 receptor (setting [3]), this compound gave a dissociation half-life of 1.12 h, a koff of 0.000167 s⁻¹, a kon of 75300 M⁻¹ s⁻¹ and a tR of 96 min. Moreover, the Ki at human Orexin 1 receptor (setting [3]) was 2.51 nM. On human Orexin 2 receptor, the Ki was 1580 nM, the dissociation half-life was determined as 4.3 min, the koff was 0.00298 s⁻¹ and the kon was 1830 M⁻¹ s⁻¹. This compound showed a tR on human Orexin 2 receptor of 6.2 min.

`Cc1ccc(-n2nccn2)c(C(=O)N(C)[C@@H](C)CNc2cnc(C(F)(F)F)cn2)n1` [Example 1, N,6-dimethyl-3-(2H-1,2,3-triazol-2-yl)-N-[(2S)-1-{[5-(trifluoromethyl)pyrazin-2-yl]amino}propan-2-yl]pyridine-2-carboxamide]: at human Orexin 1 receptor (setting [1]), the dissociation half-life stood at 1.73 h, the koff was 0.000117 s⁻¹, the kon was 146000 M⁻¹ s⁻¹ and the tR is recorded as 150 min. In addition, the Ki at human Orexin 1 receptor (setting [1]) is 0.794 nM. On human Orexin 1 receptor (setting [2]), this compound showed a dissociation half-life of 2.83 h, a koff of 8.33e-05 s⁻¹, a kon of 140000 M⁻¹ s⁻¹ and a tR of 245 min. The Ki at human Orexin 1 receptor (setting [2]) was 0.501 nM. Moreover, at human Orexin 1 receptor (setting [3]), the dissociation half-life is 4.13 h, the off-rate (koff) is 5e-05 s⁻¹, the kon was 130000 M⁻¹ s⁻¹ and the tR was 357 min. The Ki on human Orexin 1 receptor (setting [3]) was 0.316 nM. At human Orexin 2 receptor, the Ki is 316 nM, the dissociation half-life stood at 4.1 min, the koff was 0.00352 s⁻¹ and the kon is 10800 M⁻¹ s⁻¹. Also, at human Orexin 2 receptor, the tR is listed as 5.9 min.
